Measured values: patent US5416209A, “5,6-dihydro-dibenz[b,e]azepine-6,11-dione-11-oximes” (Bayer Aktiengesellschaft, priority 1991, dated 1995)

Test system: HIV virus (HIV-infected normal human blood lymphocytes (PBLs) or alternatively H9 cells)
Experiment: HIV infection in cell culture (inhibition of virus-induced syncytia)
Format: cell-based
Conditions: Human immunodeficiency virus 1, 72 h, concentration at which 50% of the virus-induced syncytia are suppressed, day 3 to 6 after infection, 37° C.
Description: HIV infection in cell culture
The HIV test was carried out with slight modifications according to the method of Pauwels et al. [cf. Journal of Virological Methods 20, (1988), 309-321].
Normal human blood lymphocytes (PBLs) were concentrated by means of Ficoll-Hypaque and stimulated with phytohaemagglutinin (90 μg/ml) and interleukin-2 (40 U/ml) in RPMI 1640 and 20% foetal calf serum. For infection with the infectious HIV, PBLs were pelleted and the cell pellet was then suspended in 1 ml of HIV virus adsorption solution and incubated for 1 hour at 37° C.
Alternatively, HIV-susceptible H9 cells were employed instead of normal human blood lymphocytes for testing the antiviral effects of the compounds according to the invention.
The virus adsorption solution was centrifuged and the infected cell pellet was taken up in growth medium so that a concentration of 1×10^5 cells per ml was established. The cells infected in this way were pipetted into the wells of 96-well microtiter plates to give 1×10^4 cells/well.
The first vertical row of the microtiter plate contained only growth medium and cells which had not been infected, but otherwise treated exactly as described above (cell control). The second vertical row of the microtiter plate contained only HIV-infected cells (virus control) in growth medium. The other wells contained the compounds according to the invention in differing concentrations, starting from the wells of the 3rd vertical row of the microtiter plate, from which the test substances were diluted 2^10 times in 2-fold steps.
The test batches were incubated at 37° C. until, in the untreated virus control, the syncytia formation typical of HIV occurred (between day 3 and 6 after infection), which was then microscopically assessed. Under these test conditions, in the untreated virus control about 20-50 syncytia resulted, while the untreated cell control contained no syncytia.
The IC50 values were determined as the concentration of the treated and infected cells at which 50% (about 10-20 syncytia) of the virus-induced syncytia were suppressed by treatment with the compound according to the invention.

SMILES	IC50
CCO/N=c1\c2cc(Cl)ccc2[nH]c(=O)c2ccccc12 [Example 8]	500 nM
O=c1[nH]c2ccc(Cl)cc2c(=NOC2CCCCO2)c2ccccc12 (centres unmarked) [Example 31]	250 nM
O=c1[nH]c2ccc(Cl)cc2c(=NOCc2c(F)c(F)c(F)c(F)c2F)c2ccccc12 [Example 18]	1000 nM
CCO/N=c1/c2cc(Cl)ccc2[nH]c(=O)c2ccccc12 [Example 4, (E) -2-Chloro-11-ethoxyimino-6-oxo-5,6-dihydro-11-H-dibenz [b,e]azepine]	60 nM
Cc1ccnc2c1NC(=O)c1cccnc1N2C1CC1 [BIRG 587, reference compound]	90 nM
CON=c1c2cc(Cl)ccc2[nH]c(=O)c2ccccc12 [Example 6]	1500 nM
COC(=O)CON=c1c2cc(Cl)ccc2[nH]c(=O)c2ccccc12 [Example 24]	2300 nM
O=c1[nH]c2ccc(Cl)cc2c(=NOCc2ccccc2)c2ccccc12 [Example 17]	700 nM
